This note sets out measurements from patent US20070042020A1, “Composition for the treatment of dysfunctional energy metabolism syndrome” (priority 2003, published 2007).

The subject of this assay is old Labrador Retriever dog that had difficulty in standing and walking. As to the kind of experiment: Exercise ability (walking distance) of a dog under cofactor supplementation. In kind it is in vivo. On the procedure:
When L-carnitine, acetyl-L-carnitine, with added pantothenate at 0.4 mg/kg body weight were supplemented for one week, exercise ability increased to 2740 yards and, by three weeks, ability was 3807 yards. However, when pantothenate was eliminated for two weeks, exercise ability declined to 350 yards. Then when pantothenate was returned to the L-carnitine and acetyl-L-carnitine combination, his exercise capability returned to more than 3800 yards. This case illustrates the contribution of the various cofactors to physical activity.

Each structure is given as a SMILES string.

`C[N+](C)(C)C[C@H](O)CC(=O)[O-]` [L-carnitine]: under “after one week of L-carnitine at 5 mg/kg body weight, 340 yards before”, the “distance it could walk” value worked out at 1240 yards.

On to `CC(=O)O[C@H](CC(=O)[O-])C[N+](C)(C)C` [acetyl-L-carnitine], for which the “exercise ability (distance walked)” value (after two weeks of acetyl-L-carnitine at 4 mg/kg body weight and no L-carnitine) turned out to be 648 yards.
